Source: publication PMC12197642 (Viruses, 2025)

Key:
[1] = target: FMDV 2C helicase (Foot-and-mouth disease virus serotype O, UniProt P03305); type: biochemical
[2] = in vitro; conditions: hamster
[3] = tested on: FMDV serotype O strain O/China; type: cell-based, foot-and-mouth disease virus (FMDV)
[4] = tested on: FMDV serotype O strain O/China; assay: microbe, parasite or virus in culture; type: cell-based, foot-and-mouth disease virus (FMDV)
[5] = tested on: FMDV serotype O strain O/China; type: cell-based, foot-and-mouth disease virus (FMDV); remark: listed apart in the source
[6] = tested on: picornaviral 2C; conditions: cited from earlier work
[7] = Foot-and-mouth disease virus, BHK-21, read-out: reduction of viral plaque formation (inhibitory efficacy)

Chain of FMDV 2C helicase (P03305 1108-1425 limits assumed): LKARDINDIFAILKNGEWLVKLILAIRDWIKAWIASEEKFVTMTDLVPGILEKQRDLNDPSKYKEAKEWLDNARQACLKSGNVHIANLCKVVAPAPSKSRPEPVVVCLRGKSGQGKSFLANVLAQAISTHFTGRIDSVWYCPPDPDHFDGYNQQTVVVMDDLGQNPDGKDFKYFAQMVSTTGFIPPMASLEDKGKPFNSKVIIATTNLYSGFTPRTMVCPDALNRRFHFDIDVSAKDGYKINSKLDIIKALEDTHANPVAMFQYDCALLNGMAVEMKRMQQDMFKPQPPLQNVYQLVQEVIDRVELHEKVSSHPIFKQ

| SMILES | inhibition type [1] | CC50 [2] [µM] | viability at 500 µM [2] [%] | further results |
| --- | --- | --- | --- | --- |
| COc1cccc2c1NC(=O)C(Cl)(Cl)C2=O [Compound C5, 3,3-dichloro-8-methoxy-2,4(1H,3H)-quinolinedione] | noncompetitive inhibition | 127 | – | – |
| Oc1ccccn1 [Compound C3, pyridin-2-ol] | competitive inhibition | 852 | > 50 | – |
| COc1ccc2c(c1)cc1n2CCN2CCCN=C12 [Compound C4, 11-methoxy-3,4,6,7-tetrahydro-2H-pyrimido[2′,1′:3,4]pyrazino[1,2-a]indole] | mixed inhibition | 284 | – | suppression of FMDV RNA levels [3]: significantly outperformed 2-MPO; concentration achieving effective FMDV suppression [4]: 160 µM; inhibition rate (plaque assay) [4]: 99.7%; antiviral activity by indirect immunofluorescence [5]: superior viral replication suppression |
| Sc1cnn[nH]1 [Compound C2, 1H-1,2,3-triazole-5-thiolate] | competitive inhibition | 1330 | > 50 | – |
| Cl.N=C(N)N [Guanidine hydrochloride] | – | – | – | effect on helicase and ATPase activities [6]: suppresses helicase and ATPase activities |
| O=C1C=CC2(C=C1)OC(=O)c1ccccc1O2 [Compound C6, Spiro (4H-[1,3]benzodioxine-2,4′-[2,5]cyclohexadiene)-1′,4-dione] | noncompetitive inhibition | 3 | – | – |
| Cc1cccc[n+]1[O-] [Compound C1, 2-methylpyridine 1-oxide] | mixed inhibition | – | > 50 | concentration achieving effective FMDV suppression [4]: 400 µM; reduction of viral plaque formation [4]: 90.2%; inhibition at 200 µM [4, 7]: 97.3%; inhibition at 400 µM [4, 7]: 99.8%; antiviral activity by indirect immunofluorescence [5]: superior viral replication suppression |
